Data as given in patent publication US6946547B2, “Ecstasy-class analogs and use of same in detection of ecstasy-class compounds” (Microgenics Corporation, priority 2000, dated 2005).
Marks after values point to notes of the source that are not given here.

How the values were obtained:
Antibody 1A9 = test: CEDIA ecstasy-class assay on a Hitachi clinical chemistry analyzer; assay type: binding, mouse; settings: for detection in the CEDIA ecstasy-class MDMA assay: in words
Description: Antibodies obtained using any of the aforementioned techniques are screened or purified not only for their ability to react with an ecstasy-class compound, but also for a low cross-reactivity with potential interfering substances. “Cross reactivity” is determined in a quantitative immunoassay by establishing a standard curve using known dilutions of the target analyte, e.g., MDMA. […] The cross-reactivity is the apparent concentration divided by the actual concentration multiplied by 100. […] Alternatively, the cross-reactivity can be determined in the same type of immunoassay in which the antibody will ultimately be used.
• a. Preparation of Reagents:
Enzyme Donor (ED) Reagent was prepared as a liquid reagent with the components below:
Assay Protocol: The assay was performed on a Hitachi clinical chemistry analyzer as follows: Sample was pipetted into a reaction cuvette. EA reagent, containing antibody, was added. The mixture was incubated at 37° C. for approximately 5 minutes. ED reagent containing […] was subsequently added, and the incubation continued for 4 minutes at 37° C. The rate of substrate hydrolysis was measured photometrically at 570 nm (with subtraction of background at 660 nm) from four to five minutes after ED addition.

[1] = Standard CEDIA DAU Amphetamines assay, Hitachi 911; settings: methamphetamine = 100
[2] = tested on: 1A9 anti-ecstasy antibody; test: Enhanced CEDIA DAU Amphetamines assay (1A9 antibody and ED28-(MB-MDA)2 added); settings: methamphetamine = 100
[3] = Antibody 1A9, Experiment 1, concentration 300 ng/mL
[4] = Antibody 1A9, Experiment 1, concentration 1000 ng/mL
[5] = Antibody 1A9, Experiment 1, concentration 5000 ng/mL
[6] = antibody 1A9, summary of detected ecstasy-class compounds
[7] = Antibody 1A9, Experiment 2, concentration 600,000 ng/mL
[8] = Antibody 1A9, Experiment 2, concentration 1,000,000 ng/mL

| Compound | Cross-Reactivity (Antibody 1A9; [3]) | Cross-Reactivity (Antibody 1A9; [4]) | Cross-Reactivity (Antibody 1A9; [5]) | Cross-Reactivity (Antibody 1A9; [6]) | Cross-reactivity, Standard CEDIA Amphetamines ([1]; concentration 300 ng/ml) | Cross-reactivity, Standard CEDIA Amphetamines ([1]; concentration 500 ng/ml) | Cross-reactivity, Enhanced CEDIA Amphetamines ([2]; concentration 300 ng/ml) | Cross-reactivity, Enhanced CEDIA Amphetamines ([2]; concentration 500 ng/ml) | detection in the CEDIA ecstasy-class MDMA assay (Antibody 1A9; antibody 1A9) | Cross-Reactivity (Antibody 1A9; [7]) | Cross-Reactivity (Antibody 1A9; [8]) |
| --- | --- | --- | --- | --- | --- | --- | --- | --- | --- | --- | --- |
| CCC(N)Cc1ccc2c(c1)OCO2 (centres unmarked) [BDB, 1-(3,4-methylenedioxyphenyl)-2-butanamine] | 33% | 50* % | 30% | 33% | 5 | 7 | 105 | 125 |  |  |  |
| CNC(C)Cc1ccc(O)c(OC)c1 (centres unmarked) [HMMA, 4-hydroxy-3-methoxymethamphetamine] | <0.1% | <0.1% | <0.1% |  |  |  |  |  | detected neither |  |  |
| CCC(Cc1ccc2c(c1)OCO2)NC (centres unmarked) [MBDB, N-methyl-1-(3,4-methylenedioxyphenyl)-2-butanamine] | 23% | 29* % | 18% | 23% | 64 | 73 | 80 | 97 |  |  |  |
| CC(N)Cc1ccc2c(c1)OCO2 (centres unmarked) [MDA, 3,4-methylenedioxyamphetamine] | 55% | 68* % | 63% | 55% | 5 | 4 | 81 | 91 |  |  |  |
| CCNC(C)Cc1ccc2c(c1)OCO2 (centres unmarked) [MDEA, N-ethyl-3,4-methylenedioxyamphetamine] | 155* % | 484% |  | 155% | 22 | 21 | 153 |  |  |  |  |
| CNC(C)Cc1ccc2c(c1)OCO2 (centres unmarked) [MDMA, 3,4-methylenedioxymethamphetamine] |  |  |  | 100% | 49 | 50 | 129 |  |  |  |  |
| CN[C@@H](C)Cc1ccccc1 [Methamphetamine] |  |  |  |  | 100 | 100 | 100 | 100 | detected neither | 0.056% |  |
| CC(N)C(O)c1ccccc1 (centres unmarked) [phenylpropanolamine] |  |  |  |  |  |  |  |  |  |  | 0.0041% |
| CN[C@@H](C)[C@@H](O)c1ccccc1 [pseudoephedrine] |  |  |  |  |  |  |  |  |  | 0.0017% |  |
| (±)ephedrine |  |  |  |  |  |  |  |  |  |  | 0.0047% |
